Results from patent publication US4831033A (City of Hope, priority 1988, dated 1989).

Key:
[1] = test system: K^+ transport, P3 membrane fractions from whole brains of Swiss mice; assay: K^+ transport (^86 Rb uptake) in P3 membrane fractions; type: biochemical; conditions: for K^+ Transport Relative Potency: relative to amodiaquin; for concentration inhibiting K^+ transport (selection criterion): submillimolar concentrations
Description: To obtain the data set forth in Table I, K^+ -transport was measured using P3 membrane fractions prepared from whole brains of Swiss mice. […] The resulting supernatant was centrifuged at 17,000 g for 15 minutes, and the supernatant from the latter was centrifuged at 70,000 g for 1 hour to pellet the P3 fraction. The P3 pellet was washed by resuspension in 50 mM Tris-citrate (pH 7.3). After 10 minutes on ice, the suspension was centrifuged at 70,000 g for 10 minutes. This washing procedure was repeated twice using distilled water for the resuspension. […] The suspension (2-3 mg protein/ml) was stabilized on ice for 1 hour prior to use. Uptake of ^86 Rb (radioactive) was used to assess the K^+ -transport of the P3 articles. Many published experiments have shown the ^86 Rb, with a half-life 36 times longer than ^42 K, is a suitable tracer for K. Rb permeates neuronal K channels as well as does K itself.
After filtration of the samples, the filters were washed rapidly three times with 10^-3 M triethanolamine containing 0.1M RbCl (non-radioactive) and counted in ACS liquid scintillation cocktail (Amersham). In calculating the results, the uptake found in the presence of 0.1M non-radioactive RbCl was subtracted from that found in the presence of various concentrations of the test substances in the presence of 10^-6 M ^86 RbCl alone. […] Between 0.2 and 0.5 mg/ml usually were employed. The results were normalized by calculating them as percentages of the uptake observed with 10^-6 M ^86 RbCl alone.

Acetylcholinesterase = target: T1, Acetylcholinesterase (Electrophorus electricus, UniProt O42275); assay: Acetylcholinesterase activity, acetylthiocholine substrate, colorimetric (Ellman); type: biochemical, electric eel; conditions: for Acetylcholinesterase Activity Relative Potency: relative to amodiaquin
T1 construct: prepared from the electric organ of the electric eel; from tissue; host or cells: electric organ of the electric eel
Description: Cholinesterase activity reported in Table I was measured by a standard procedure. The enzyme employed was prepared from the electric organ of the electric eel. It is known to have the same properties as the enzyme of mammalian nervous tissue. Acetylthiocholine was used as substrate.
Inhibitory potency of substances was determined by measuring enzyme activity in the absence and presence of varying concentrations of the test substances.

T1 sequence (O42275 24-633): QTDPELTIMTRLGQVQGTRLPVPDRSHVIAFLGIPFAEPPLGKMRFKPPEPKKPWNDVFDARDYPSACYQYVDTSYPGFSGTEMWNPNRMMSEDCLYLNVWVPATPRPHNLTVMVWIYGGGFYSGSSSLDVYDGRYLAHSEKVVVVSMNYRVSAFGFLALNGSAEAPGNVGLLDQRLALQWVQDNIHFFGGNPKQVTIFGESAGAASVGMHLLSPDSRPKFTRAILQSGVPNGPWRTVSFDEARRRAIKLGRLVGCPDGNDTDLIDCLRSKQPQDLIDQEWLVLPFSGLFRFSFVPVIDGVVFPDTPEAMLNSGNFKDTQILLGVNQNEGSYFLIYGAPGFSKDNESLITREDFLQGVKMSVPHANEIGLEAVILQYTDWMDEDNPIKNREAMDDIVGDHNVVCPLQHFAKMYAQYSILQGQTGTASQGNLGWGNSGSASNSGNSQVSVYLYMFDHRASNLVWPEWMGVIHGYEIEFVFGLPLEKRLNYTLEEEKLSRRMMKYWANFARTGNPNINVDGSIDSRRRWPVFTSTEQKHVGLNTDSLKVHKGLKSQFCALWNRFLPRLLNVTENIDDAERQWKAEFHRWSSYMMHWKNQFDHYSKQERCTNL

`CCN(CC)CCCC(C)Nc1ccnc2cc(Cl)ccc12` (stereo not shown) [Chloroquine, chloroquine] was tested, and the “K^+ Transport Rank Order” value [1] was 4, the “K^+ transport inhibition compared with amodiaquin (in words)” value [1] was “approximately one-twentieth as active” and the “K^+ Transport Relative Potency” value [1] was 0.067. For the same compound, the “concentration inhibiting K^+ transport (selection criterion)” value [1] was ≤ 10^-3 M, the “Acetylcholinesterase Activity Rank Order” value (Acetylcholinesterase) was 5(4) and the “cholinesterase inhibitory potency compared with amodiaquin (in words)” value (Acetylcholinesterase) was “less than one-thousandth”. The “Acetylcholinesterase Activity Relative Potency” value (Acetylcholinesterase) was 0.001.
`Nc1c2ccccc2nc2ccccc12` [9-aminoacridine] was tested, and the “K^+ Transport Rank Order” value [1] was 2 and the “K^+ transport inhibition compared with amodiaquin (in words)” value [1] was “approximately one-half”.
With `CCN(CC)Cc1cc(Nc2ccnc3cc(Cl)ccc23)ccc1O` [Amodiaquin, amodiaquin] the “K^+ Transport Rank Order” value [1] was 1, the “K^+ transport inhibition compared with amodiaquin (in words)” value [1] was “ranked first” and the “cholinesterase inhibitory potency compared with amodiaquin (in words)” value (Acetylcholinesterase) was “most effective cholinesterase inhibitor of this group”.
For `CCN(CC)CCCC(C)Nc1c2ccc(Cl)cc2nc2ccc(OC)cc12` (stereo not shown) [Quinacrine, quinacrine], the “K^+ Transport Rank Order” value [1] was 3, the “K^+ transport inhibition compared with amodiaquin (in words)” value [1] was “approximately one-half” and the “K^+ Transport Relative Potency” value [1] was 0.44. For the same compound, the “concentration inhibiting K^+ transport (selection criterion)” value [1] was ≤ 10^-3 M, the “Acetylcholinesterase Activity Rank Order” value (Acetylcholinesterase) was 4(5) and the “cholinesterase inhibitory potency compared with amodiaquin (in words)” value (Acetylcholinesterase) was “less than one-thousandth”. The “Acetylcholinesterase Activity Relative Potency” value (Acetylcholinesterase) was 0.001.
